Test [1] has as its system NF-κB. Description: LPS-induced NF-κB activation in NF-κB-RE-Luc reporter mouse. Conditions: intraperitoneal, 2 h before LPS; BANA 10, 20 and 30 mg/kg; BA 30 mg/kg; DMF 30 mg/kg. It is filed as in vivo. The method, then:
To determine whether BANA was capable of preventing LPS-induced NF-κB activation, intraperitoneal administration of BANA (10, 20, and 30 mg/kg) were followed by LPS intraperitoneal administration to an NF-κB-reporter transgenic mouse.

Another test deals with SOD1^G93A rats. Description: Immunohistochemical analysis of gliosis in the ventral horn of lumbar spinal cord. It is filed as in vivo, rat. To be noted: 15 days post-paralysis. As to the method: After 15 days of treatment using 100 mg/kg/day of BANA, starting after paralysis onset, animals were deeply anesthetized and transcardial perfusion was performed with 0.9% saline and 4% paraformaldehyde in […] (pH 7.2-7.4). Fixed spinal cords were removed, post-fixed by PFA 4% immersion overnight, and then transverse sectioned (30 m) in a Leica cryostat. Serial sections were collected in 100 mM PBS for immunohistochemistry.
At least 4 rats were analyzed for each immunohistochemistry experiment. Three different conditions were studied as follows: 1) non-transgenic (NonTg) rats of 160-180 days; 2) transgenic SOD1^G93A rats of 195-210 days treated with vehicle (paralysis, 15 d-vehicle) and 3) transgenic SOD1^G93A rats of 195-210 days treated with 50 or 100 mg/kg/day of BANA during 15 days. After treatment animals were deeply anesthetized and transcardial perfusion was performed with paraformaldehyde 4% (v/v) in PBS pH=7.4. Fixed spinal cords were removed, post-fixed by immersion overnight in paraformaldehyde 4% (v/v) in PBS pH=7.4, and then transverse sectioned (30 m) in a Leica cryostat. Serial sections were collected in PBS pH=7.4 for immunohistochemistry.
Free-floating sections were blocked and permeabilized for 1 hour at room temperature with 0.5% Triton X-100 and 5% BSA in PBS (pH=7.4), passed through washing buffered solutions, and incubated overnight at 4° C. in a solution of 0.5% Triton X-100 and BSA 1% in PBS (pH=7.4) containing the primary antibodies: mouse anti-GFAP (G3893 1:400), rabbit anti-GFAP (Sigma #G9269 1:400), mouse anti-S1000 (Sigma #S2532 1:400), rabbit anti-Iba1 (Wako #019-19741, 1:500), rabbit anti-ChAT (Choline acetyltransferase) (Millipore, #AB143, 1:300), mouse anti-CD68 (Abcam, #ab31630, 1:300), rabbit anti-CD34 (Abcam, #ab81289, 1:200), rabbit anti-Ki67 (Abcam, #ab66155, 1:300), rabbit anti-NF-κB-p65 (Abcam, #ab16502, 1:200), rabbit anti-Ki67 (Abcam, #ab16667, 1:200), rabbit anti-ubiquitin (Millipore, #05-1307, 1:200), mouse anti-nitrotyrosine (Millipore, #05233, 1:200), anti-VGlut-1 (SySy, #135-303, 1:300), anti-synaptophysin (Abcam, #206870, 1:300), anti-0111-Tubulin (Millipore, #MAB1637, 1:200).
The inventors assessed the effect of BANA on markers of neuroinflammation in the degenerating spinal cords. SOD1^G93A rats were treated daily with BANA (100 mg/kg) or vehicle at the onset of motor symptoms. After 15 days of treatment, rats were euthanized and spinal cords were dissected for immunohistological analysis.
Experiments to assess the effect of BANA on markers of neuroinflammation in the degenerating spinal cords were conducted in rats. SOD1^G93A rats were treated with BANA (100 mg/kg/day) or vehicle at the onset of symptoms. After 15 days of treatment rats were euthanized and spinal cord was removed for histological analysis.
Microgliosis and astrogliosis were assessed by counting the expression intensity for the different markers in gray matter from the lumbar cord of non-transgenic, SOD1^G93A onset or symptomatic rats that were treated with either vehicle or BANA. The number of aberrant glial cells co-expressing the astrocytic markers GFAP and S1000 was assessed by counting the respective positive cells for both markers in gray matter from the lumbar cord of non-transgenic, SOD1^G93A onset or symptomatic rats that were treated with either vehicle or BANA. The analysis was performed in at least 10 histological sections per animal (three different rats for each condition) using the ImageJ software. Statistical studies were performed using statistical tools of GraphPad Prism 7 software. Descriptive statistics were used for each group, and Kruskal-Wallis analysis, followed by Dunn's comparison test, was used among groups. All results are presented as mean±SEM, with p<0.05 considered significant.

Another test deals with inflammasome. Put plainly: LPS/ATP-induced inflammasome activation in BV2 cells (western blot of IL-1β). It is filed as cell-based, murine. Conditions: treatment in second signal (ATP), compared to vehicle or sodium benzoate. The method, then: FIG. 3B: For inflammasome activation, BV2 cells were treated with LPS and ATP. BANA or B.A treatment was performed in second signal (ATP). Presence of pro-IL1β in cell lysates (CL) and cleaved IL-1β in supernatants (SN) was determined by western blot analysis. […] All data are expressed as mean±SEM.

Test [2] has as its system NF-κB. Description: RT-qPCR of NF-κB-associated cytokine mRNA in LPS-stimulated SOD1^G93A primary microglia. It is filed as cell-based, rat. To be noted: adult microglia isolated from symptomatic SOD1^G93A rats. As to the method:
FIG. 8F: Analysis by RT-qPCR of mRNA levels of NF-κB-associated proinflammatory cytokines CCL2, IL-6, IL-1β, and TNFα following LPS-stimulation in SOD1^G93A primary microglia.
BANA inhibits LPS-induced NF-κB-p65 nuclear translocation in SOD1^G93A microglia. Nuclear NF-κB-p65 colocalizing with DAPI nuclear staining is denoted in yellow. […] All quantitative data are expressed as mean±SEM; data were analyzed by Ordinary one-way ANOVA followed by Tukey's multiple comparisons test, ****p<0,0001, 3 replicates of 4 independent experiments. Scale bar=20 μm. […] BANA prevents NF-κB-mediated gene transcription induced by LPS. Data are expressed as mean±SEM; data were analyzed by Ordinary one-way ANOVA followed by Tukey's multiple comparisons test, *p=0.0395 (CCL2) *p=0.0409 (IL-6) **p=0.0049 (IL-10) *p=0.0292 **p=0.0063 (TNFα). 2 replicates of 3 independent experiments.

The next test has as its system NF-κB-p65. Put plainly: LPS-induced NF-κB-p65 nuclear translocation in SOD1^G93A primary microglia. Conditions: BANA 10-30 μM before LPS. In kind it is cell-based, rat. The method, then: FIG. 8D: Confocal images show CD11b-positive SOD1^G93A primary microglia (grey) treated with BANA, BA or vehicle, before LPS stimulation. […] Nuclear NF-κB-p65 colocalizing with DAPI nuclear staining is denoted in yellow.
Nuclear NF-κB-p65 colocalizing with DAPI nuclear staining is denoted in yellow. […] Scale bar=20 μm. […] 2 replicates of 3 independent experiments.
The effects of BANA on LPS- or TNFα-induced NF-κB activation were also assayed in cell cultures of BV2 microglial cell line and primary adult microglia isolated from symptomatic SOD1^G93A rats, and HT-29 NF-κB reporter cell line, respectively.

Entries after “also recorded” stand apart in the source; their conditions may differ.

Take `O=C(O)c1ccc(/C=C/[N+](=O)[O-])cc1` [BANA, (E)-4-(2-nitrovinyl) benzoic acid]: in the test on NF-κB [1], the “LPS-induced NF-κB activation in vivo” value is given as “significantly decreased; also recorded: significantly inhibited”. In addition, in the test on SOD1^G93A rats (50 mg/kg/day), the “astrogliosis (GFAP)” value is on record as “failed to reduce” and the “microgliosis (Iba1)” value was “significantly reduced”. In the test with SOD1^G93A rats (100 mg/kg/day, vs vehicle), the “astrocytosis (GFAP staining)” value is given as “significantly reduced”; the “cell proliferation in the ventral horn (Ki67-positive nuclei)” value was “decreased; also recorded: significantly reduced”; the “emergence of aberrant glial cells (GFAP/S100β) in the surroundings of motor neurons” value is given as “significantly reduced”; the “microgliosis in the ventral horn (Iba1-, CD68-, CD34-positive cells)” value is recorded as “significantly reduced”. Further, the “LPS/ATP-induced inflammasome activation (release of IL-1β adjusted to pro-IL-1β)” value in the test on inflammasome was “inhibited”. The “LPS-induced NF-κB-dependent transcription of CCL2/MCP1, IL-6, IL-1β and TNFα (RT-qPCR)” value in the test with NF-κB [2] is listed as “prevented”. The “LPS-induced NF-κB-p65 nuclear translocation” value with NF-κB-p65 is recorded as “inhibits; also recorded: potently prevented”.

(Values after patent US20260060947A1 (INSTITUT PASTEUR DE MONTEVIDEO, priority 2019, published 2026).)
